Assay results as given in patent US20250084063A1 (Incyte Corporation, priority 2023, published 2025).

Assays:
Assay type in all cases: cell-based
MRGPRX2 [1] = target: T1, MRGPRX2 (Homo sapiens, UniProt Q96LB1); experiment: MRGPRX2 IP1 HTRF assay; design: host or cells: CHO-K1; conditions: CHO-K1 cells stably expressing human MRGPRX2; IP1 accumulation, agonist Cortistatin 14 1 μM
T1 sequence (Q96LB1 1-330): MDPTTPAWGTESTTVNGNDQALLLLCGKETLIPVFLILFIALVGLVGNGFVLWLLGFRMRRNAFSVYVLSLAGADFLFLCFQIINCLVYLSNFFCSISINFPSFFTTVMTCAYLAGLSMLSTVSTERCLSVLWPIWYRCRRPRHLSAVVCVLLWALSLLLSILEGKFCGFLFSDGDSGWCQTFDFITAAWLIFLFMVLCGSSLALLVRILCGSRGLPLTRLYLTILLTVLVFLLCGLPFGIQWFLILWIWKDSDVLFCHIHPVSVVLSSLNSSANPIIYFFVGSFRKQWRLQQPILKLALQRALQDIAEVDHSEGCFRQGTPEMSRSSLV

MRGPRX2 [2] = target: T1, MRGPRX2; experiment: MRGPRX2 FLIPR calcium mobilization assay; design: host or cells: CHO-K1; conditions: CHO-K1 cells stably expressing human MRGPRX2; Ca2+ release, agonist Cortistatin-14 at EC80
Method in brief: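 CHO-K1 cells stably expressing human MRGPRX2, loaded with Calcium 6 dye, pre-incubated 30 min at room temperature with test compound in HBSS/20 mM HEPES pH 7.4. Then challenged with Cortistatin-14 at EC80; baseline-adjusted peak fluorescence over 110 s fitted to a Hill equation for IC50.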

MRGPRX2 [3] = target: T1, MRGPRX2; experiment: MRGPRX2 β-Arrestin assay; design: host or cells: PathHunter CHO-K1; conditions: PathHunter CHO-K1 MRGPRX2 β-Arrestin cell line; agonist Cortistatin 14 0.25 μM
Method in brief: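 PathHunter CHO-K1 cells expressing ProLink-tagged MRGPRX2 and enzyme-acceptor-tagged β-arrestin were preincubated with serially diluted compound 1 h at 37 °C, then stimulated with 0.25 μM cortistatin 14 (final) for 90 min. β-arrestin recruitment was read by luminescence; IC50 from 3- or 4-parameter Hill fits normalised to DMSO and reference antagonist controls.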

Measured: IC50

O=C(NC1CC(F)(F)C1)N1CC(CNc2cc(C(F)(F)F)nc3ccc(Cl)cc23)(c2ccc(F)cn2)C1 [Example 19, 3-(((6-Chloro-2-(trifluoromethyl)quinolin-4-yl)amino)methyl)-N-(3,3-difluorocyclobutyl)-3-(5-fluoropyridin-2-yl)azetidine-1-carboxamide]
0.1 to 100 nM: all assays above

NC(=O)N1CCC(CNc2cc(C(F)(F)F)nc3ccc(Cl)cc23)(c2ccc(F)cn2)C1 (stereo not drawn) [Example 20, 3-(((6-Chloro-2-(trifluoromethyl)quinolin-4-yl)amino)methyl)-3-(5-fluoropyridin-2-yl) pyrrolidine-1-carboxamide]
0.1 to 100 nM: all assays above

CC(C)NC(=O)N1CC(CNc2cc(C(F)(F)F)nc3ccc(Cl)cc23)(n2cc(F)cn2)C1 [Example 21, 3-(((6-Chloro-2-(trifluoromethyl)quinolin-4-yl)amino)methyl)-3-(4-fluoro-1H-pyrazol-1-yl)-N-isopropylazetidine-1-carboxamide]
0.1 to 100 nM: all assays above

O=C(NC1CC(F)(F)C1)N1CC(CNc2cc(C(F)(F)F)nc3ccc(Cl)cc23)(n2cc(F)cn2)C1 [Example 22, 3-(((6-Chloro-2-(trifluoromethyl)quinolin-4-yl)amino)methyl)-N-(3,3-difluorocyclobutyl)-3-(4-fluoro-1H-pyrazol-1-yl)azetidine-1-carboxamide]
0.1 to 100 nM: all assays above

NS(=O)(=O)N1CC(CNc2cc(C(F)(F)F)nc3ccc(F)cc23)(c2ccc(F)cc2)C1 [Example 23, 3-(((6-Fluoro-2-(trifluoromethyl)quinolin-4-yl)amino)methyl)-3-(4-fluorophenyl)azetidine-1-sulfonamide]
0.1 to 100 nM: all assays above

NS(=O)(=O)N1CC(CNc2cc(C(F)(F)F)nc3ccc(Cl)cc23)(n2cc(F)cn2)C1 [Example 24, 3-(((6-Chloro-2-(trifluoromethyl)quinolin-4-yl)amino)methyl)-3-(4-fluoro-1H-pyrazol-1-yl)azetidine-1-sulfonamide]
0.1 to 100 nM: all assays above

NC(=O)N1CC(CNc2cc(C(F)(F)F)nc3ccc(F)cc23)(c2ccc(F)cc2)C1 [Example 25, 3-(((6-Fluoro-2-(trifluoromethyl)quinolin-4-yl)amino)methyl)-3-(4-fluorophenyl)azetidine-1-carboxamide]
0.1 to 100 nM: all assays above

[2H]C([2H])([2H])NC(=O)N1CC(CNc2cc(C(F)(F)F)nc3ccc(Cl)cc23)(n2cc(F)cn2)C1 [Example 26, 3-(((6-Chloro-2-(trifluoromethyl)quinolin-4-yl)amino)methyl)-3-(4-fluoro-1H-pyrazol-1-yl)-N-(methyl-d3)azetidine-1-carboxamide]
0.1 to 100 nM: all assays above

O=C(NC1CC1)N1CC(CNc2cc(C(F)(F)F)nc3ccc(Cl)cc23)(n2cc(F)cn2)C1 [Example 27, 3-(((6-Chloro-2-(trifluoromethyl)quinolin-4-yl)amino)methyl)-N-cyclopropyl-3-(4-fluoro-1H-pyrazol-1-yl)azetidine-1-carboxamide]
0.1 to 100 nM: all assays above

NC(=O)N1CC(CNc2cc(C(F)(F)F)nc3ccc(Cl)cc23)(n2cc(F)cn2)C1 [Example 28, 3-(((6-Chloro-2-(trifluoromethyl)quinolin-4-yl)amino)methyl)-3-(4-fluoro-1H-pyrazol-1-yl)azetidine-1-carboxamide]
0.1 to 100 nM: all assays above

NS(=O)(=O)N1CC(CNc2cc(C(F)(F)F)nc3ccc(Cl)cc23)(c2ccc(Cl)cn2)C1 [Example 29, 3-(((6-Chloro-2-(trifluoromethyl)quinolin-4-yl)amino)methyl)-3-(5-chloropyridin-2-yl)azetidine-1-sulfonamide]
0.1 to 100 nM: all assays above

[2H]C([2H])([2H])NC(=O)N1CC(CNc2cc(C(F)(F)F)nc3ccc(Cl)cc23)(n2cc(Cl)cn2)C1 [Example 30, 3-(4-Chloro-1H-pyrazol-1-yl)-3-(((6-chloro-2-(trifluoromethyl)quinolin-4-yl)amino)methyl)-N-(methyl-d3)azetidine-1-carboxamide]
0.1 to 100 nM: all assays above

NS(=O)(=O)N1CC(CNc2cc(C(F)(F)F)nc3ccc(Cl)cc23)(c2cccc(F)c2)C1 [Example 31, 3-(((6-Chloro-2-(trifluoromethyl)quinolin-4-yl)amino)methyl)-3-(3-fluorophenyl)azetidine-1-sulfonamide]
0.1 to 100 nM: all assays above

NS(=O)(=O)N1CC(CNc2cc(C(F)(F)F)nc3ccc(Cl)cc23)(c2ccc(F)cc2)C1 [Example 32, 3-(((6-Chloro-2-(trifluoromethyl)quinolin-4-yl)amino)methyl)-3-(4-fluorophenyl)azetidine-1-sulfonamide]
0.1 to 100 nM: all assays above

NC(=O)N1CC(CNc2cc(C(F)(F)F)nc3ccc(Cl)cc23)(n2cc(Cl)cn2)C1 [Example 37, 3-(4-Chloro-1H-pyrazol-1-yl)-3-(((6-chloro-2-(trifluoromethyl)quinolin-4-yl)amino)methyl)azetidine-1-carboxamide]
0.1 to 100 nM: all assays above

NS(=O)(=O)N1CC(CNc2cc(C(F)(F)F)nc3ccc(Cl)cc23)(c2ccccc2)C1 [Example 38, 3-(((6-Chloro-2-(trifluoromethyl)quinolin-4-yl)amino)methyl)-3-phenylazetidine-1-sulfonamide]
0.1 to 100 nM: all assays above

NC(=O)N1CC(CNc2cc(C(F)(F)F)nc3ccc(Cl)cc23)(n2cc(Br)cn2)C1 [Example 41, 3-(4-Bromo-1H-pyrazol-1-yl)-3-(((6-chloro-2-(trifluoromethyl)quinolin-4-yl)amino)methyl)azetidine-1-carboxamide]
0.1 to 100 nM: all assays above

NS(=O)(=O)N1CC(CNc2cc(C(F)(F)F)nc3ccc(Cl)cc23)(c2ncccc2F)C1 [Example 43, 3-(((6-Chloro-2-(trifluoromethyl)quinolin-4-yl)amino)methyl)-3-(3-fluoropyridin-2-yl)azetidine-1-sulfonamide]
0.1 to 100 nM: all assays above

CNC(=O)N1CC(CNc2cc(C(F)(F)F)nc3ccc(Cl)cc23)(n2cc(F)cn2)C1 [Example 44, 3-(((6-Chloro-2-(trifluoromethyl)quinolin-4-yl)amino)methyl)-3-(4-fluoro-1H-pyrazol-1-yl)-N-methylazetidine-1-carboxamide]
0.1 to 100 nM: all assays above

O=C1CCC(CNc2cc(C(F)(F)F)nc3ccc(Cl)cc23)(c2ccccc2)N1 (stereo not drawn) [Example 45, 5-(((6-Chloro-2-(trifluoromethyl)quinolin-4-yl)amino)methyl)-5-phenylpyrrolidin-2-one]
0.1 to 100 nM: all assays above

NS(=O)(=O)N1CC(CNc2cc(C(F)(F)F)nc3ccc(Cl)cc23)(c2ccc(F)cn2)C1 [Example 46, 3-(((6-Chloro-2-(trifluoromethyl)quinolin-4-yl)amino)methyl)-3-(5-fluoropyridin-2-yl)azetidine-1-sulfonamide]
0.1 to 100 nM: all assays above

NC(=O)N1CC(CNc2cc(C(F)(F)F)nc3ccc(Cl)cc23)(c2ccc(F)cn2)C1 [Example 47, 3-(((6-Chloro-2-(trifluoromethyl)quinolin-4-yl)amino)methyl)-3-(5-fluoropyridin-2-yl)azetidine-1-carboxamide]
0.1 to 100 nM: all assays above
